Measurements from patent US5376676A (Allergan, Inc., priority 1991, dated 1994).

Assays:
[1] = molecular target: phosphoinositide-specific phospholipase C; test: Inhibition of phosphoinositide-specific phospholipase C assay (PLC); type: biochemical
Text: Inhibition of Phosphoinositide-specific Phospholipase C
The effect of compounds of this invention on phosphoinositide-specific phospholipase-C may be determined by procedures described by Bennett et al, Molecular Pharmacology 32:587-593 (1987).

[2] = tested on: Ca2+ channel mobilization (TRH induced); test: Calcium channel (mobilization) inhibition assay, TRH induced; type: cell-based; settings: for IC50: TRH induced calcium mobilization
Text: (§1) Calcium Channel (Mobilization) Inhibition Assay
(§2) Polymorphonuclear leukocytes (PMNa), gastric glands, GH3 cells, A431 cells, spleen cells, human keratinocytes corneal cells, etc. were loaded with the Ca^2+ sensitive fluorescent dye, Fura-2. The appropriate cell type was chosen and the potency and efficacy of the anti-inflammatory furanones on calcium mobilization, calcium channel inhibition quantitated. The methods used for A431 cells listed below are representative of those used for other cells.
(§3) A431 cells were detached using a 5-10 min trypsin-EDTA treatment whereas GH3 cells were treated 2 to 5 min with a 1% pancreatin solution. Cells were immediately washed twice in a 20 mM HEPES buffer (pH 7.4) containing 120 mM NaCl, 6 mM KCl, 1 mM MgSO4, 1 mg/ml glucose and 1 mg/ml pyruvate and 1.4 mM calcium (medium A). Approximately 5×10^6 cells were suspended in medium A and incubated with 4 μM fura-2-AM for 15 min at 37° C.
(§4) Fluorescence was continuously recorded with a Perkin-Elmer LS-5 spectrofluorometer. The excitation wavelength was set at 340 nm and emission wavelength set at 500 nm. The cell suspension was continually stirred, maintained at 37° C. and equilibrated for approximately 5 min before addition of various agents. [Ca^2+ ]i was calculated using the following formula: [formula]
(§5) All fluorescence values were measured relative to a EGTA-quenched signal determined as follows: F was the relative fluorescence measurement of the sample. Fmax was determined by lysing the cells with digitonin (100 μg/ml) in DMSO. After Fmax was determined the pH was adjusted to 8, with NaOH and Ca^2+ chelated with 3 mM EGTA to totally quench the fura-2 signal and obtain Fmin.
(§6) When quin-2 was used, cells were Incubated with 10 μM quin-2 at 37° C. for 1 hr, washed and then used.

[3] = molecular target: bee venom phospholipase A2 (Apis mellifera, UniProt P00630); test: biochemical; settings: read-out: IC50 PLA2
bee venom phospholipase A2, sequence (P00630 34-167 limits assumed): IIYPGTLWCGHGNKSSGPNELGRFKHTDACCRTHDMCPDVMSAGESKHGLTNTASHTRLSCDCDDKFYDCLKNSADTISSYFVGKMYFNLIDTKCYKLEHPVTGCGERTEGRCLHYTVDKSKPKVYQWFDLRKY

[4] = tested on: Ca2+ channel mobilization (KCl induced); test: Calcium channel (mobilization) inhibition assay, KCl induced; type: cell-based
Text: as §1, §2, §3
as §4, with “After washing the fura-2 loaded cells, the uptake of dye was checked using fluorescence micioscopy and found to be evenly distributed in the cytosol of all cells. Fluorescence” for “Fluorescence”
as §5, §6

Row | Structure (SMILES) | IC50 [1] [nM] | IC50 [2] [nM] | IC50 [3] [nM] | IC50 [4] [nM] | Selectivity between calcium channel inhibition and phospholipase inhibition ([2]; conclusion from Table 1 (Ca2+ TRH/KCl vs PLA2, PLC))
1 | CCCCCCCCCCCCCC1=CC(=O)OC1O (stereo not drawn) [Compound 2, 4-tridecyl-5-hydroxy-2(5H)-furanone] | > 100000 | 3000 | 90 | 3000 | 
2 | CC1=C(CC/C(C)=C/CCC2=CCC(C3=CC(=O)OC3O)OC2O)C(C)(C)CCC1 (stereo not drawn) [manoalide, reference compound] | 3000 | 600 |  | 800 | 
3 | CCCCCCCCCCCCCC1=CC(=O)OC1 [Compound 1, 4-tridecyl-2(5H)-furanone] | > 100000 | 2600 | > 3300 | 1500 | selective calcium channel inhibitor
